≈ marks a conversion by molar mass, not a printed value. Where two headings read alike, the source gives them in different places.
Legend:
S. aureus ATCC29213 = assay: Antibacterial activity assay (broth dilution MIC); assay type: cell-based; settings: Staphylococcus aureus, 37° C., 24 h, compounds 38, 44-45, 58-61, 63-64 with 0.05% Tween 80
Procedure: (§1) Antibacterial activity assay. The antibacterial activities of all the compounds were determined according to a broth dilution method specified in Clinical and Laboratory Standards Institute (CLSI) guidelines. Bacterial cells were inoculated on a Mueller-Hinton agar (MHA) plate for overnight culture, and the concentration of the bacterial cells was adjusted to about 1×10^6 colony-forming units (CFU)/mL with phosphate buffered saline (PBS). First, a 1000 μg/mL stock solution (a final concentration of dimethyl sulfoxide (DMSO) was ≤2%) was prepared by dissolving a sample in DMSO/H2O. Then, the stock solution was diluted with Mueller-Hinton Broth (MHB) to an initial concentration of 100 μg/mL, and the sample solution (100 μL) was subjected to two-fold gradient dilution with MHB in a 96-well plate, to obtain 100 μg/mL to 0.78 μg/mL serial dilutions. Then, a bacterial suspension (100 μL) was added to each well of the 96-well plate and mixed with the test sample solution (100 μL). Among them, test systems for compounds 38, 44-45, 58-61 and 63-64 contained 0.05% of Tween 80. Finally, the 96-well plate was incubated at 37° C. for 24 hours. Absorbances at 600 nm at 0 and 24 h were measured. An minimum inhibitory concentration (MIC) value was defined as the lowest concentration where no visible bacterial growth occurred. All experiments were carried out in at least two duplicates, and biological repeatability could be achieved.

E. coli ATCC25922 = assay: Antibacterial activity assay (broth dilution MIC); assay type: cell-based; settings: Escherichia coli, 37° C., 24 h, compounds 38, 44-45, 58-61, 63-64 with 0.05% Tween 80
Procedure: as §1

Gram-positive bacteria = assay: Antibacterial activity against Gram-positive bacteria (MIC summary); assay type: cell-based; settings: 24 h, read-out: minimum inhibitory concentration (MIC) against Gram-positive bacteria
Procedure: as §1

MRSA N315 = assay: Antibacterial activity assay (broth dilution MIC); assay type: cell-based, methicillin-resistant Staphylococcus aureus; settings: Staphylococcus aureus, 37° C., 24 h, compounds 38, 44-45, 58-61, 63-64 with 0.05% Tween 80
Procedure: as §1

MRSA NCTC10442 = assay: Antibacterial activity assay (broth dilution MIC); assay type: cell-based, methicillin-resistant Staphylococcus aureus; settings: Staphylococcus aureus, 37° C., 24 h, compounds 38, 44-45, 58-61, 63-64 with 0.05% Tween 80
Procedure: as §1

Gram-negative bacteria = assay: Antibacterial activity against Gram-negative bacteria (MIC summary); assay type: cell-based; settings: 24 h; summary of tables 1 and 2
Procedure: as §1

SMILES	MIC (S. aureus ATCC29213) [mg/L]	MIC (E. coli ATCC25922) [mg/L]	MIC (Gram-positive bacteria) [mg/L]	MIC (MRSA N315) [mg/L]	MIC (MRSA NCTC10442) [mg/L]	MIC (Gram-positive bacteria; summary of tables 1 and 2) [mg/L]	MIC (Gram-negative bacteria) [mg/L]
C=C[C@@](C)(/C=C/c1ccc(OCCCCN(C)C)cc1)CCC=C(C)C [Compound 5]	1.56 (≈ 4.39 µM)	> 50	0.39 to 3.12 (≈ 1.1 to 8.79 µM)	1.56 (≈ 4.39 µM)	3.12 (≈ 8.79 µM)		
C=C[C@@](C)(/C=C/c1ccc(OCCCCN(CC)CC)cc1)CCC=C(C)C [Compound 6]	3.12 (≈ 8.15 µM)	> 100	0.39 to 3.12 (≈ 1.02 to 8.15 µM)	3.12 (≈ 8.15 µM)	3.12 (≈ 8.15 µM)		
C=C[C@@](C)(/C=C/c1ccc(OCCCN(C)C)cc1)CCC=C(C)C [Compound 8]	6.25 (≈ 18.3 µM)	> 100		6.25 (≈ 18.3 µM)	6.25 (≈ 18.3 µM)		
C=C[C@@](C)(/C=C/c1ccc(OCCCN(CC)CC)cc1)CCC=C(C)C [Compound 9]	3.12 (≈ 8.46 µM)	> 100	0.39 to 3.12 (≈ 1.06 to 8.46 µM)	3.12 (≈ 8.46 µM)	3.12 (≈ 8.46 µM)		
C=C[C@@](C)(/C=C/c1ccc(OCCCCCCCCN(CC)CC)cc1)CCC=C(C)C [Compound 11]	3.12 (≈ 7.11 µM)	> 100		1.56 (≈ 3.55 µM)	1.56 (≈ 3.55 µM)	0.39 to 3.12 (≈ 0.887 to 7.11 µM)	
C=C[C@@](C)(/C=C/c1ccc(OCCCCCCCCCCN(CC)CC)cc1)CCC=C(C)C [Compound 12]	12.5 (≈ 26.7 µM)	> 100		3.12 (≈ 6.68 µM)	3.12 (≈ 6.68 µM)	0.39 to 3.12 (≈ 0.834 to 6.68 µM)	
C=C[C@@](C)(/C=C/c1ccc(OCCCCN)cc1)CCC=C(C)C [Compound 13]	1.56 (≈ 4.76 µM)	12.5 (≈ 38.2 µM)		0.78 (≈ 2.38 µM)	1.56 (≈ 4.76 µM)	0.39 to 3.12 (≈ 1.19 to 9.54 µM)	
C=C[C@@](C)(/C=C/c1ccc(OCCCCNCC)cc1)CCC=C(C)C [Compound 14]	1.56 (≈ 4.39 µM)	12.5 (≈ 35.2 µM)		0.78 (≈ 2.19 µM)	1.56 (≈ 4.39 µM)	0.39 to 3.12 (≈ 1.1 to 8.79 µM)	
C=C[C@@](C)(/C=C/c1ccc(OCCCCNCCCC)cc1)CCC=C(C)C [Compound 15]	1.56 (≈ 4.07 µM)	12.5 (≈ 32.6 µM)		1.56 (≈ 4.07 µM)	1.56 (≈ 4.07 µM)	0.39 to 3.12 (≈ 1.02 to 8.15 µM)	
C=C[C@@](C)(/C=C/c1ccc(OCCCCNCCCCCC)cc1)CCC=C(C)C [Compound 16]	1.56 (≈ 3.79 µM)	100 (≈ 243 µM)		0.78 (≈ 1.89 µM)	1.56 (≈ 3.79 µM)	0.39 to 3.12 (≈ 0.947 to 7.59 µM)	
C=C[C@@](C)(/C=C/c1ccc(OCCCCNCCCCCCCC)cc1)CCC=C(C)C [Compound 17]	6.25 (≈ 14.2 µM)	> 100		1.56 (≈ 3.55 µM)	3.12 (≈ 7.11 µM)		
C=C[C@@](C)(/C=C/c1ccc(OCCCCNCCCCCCCCCC)cc1)CCC=C(C)C [Compound 18]	50 (≈ 107 µM)	> 100		12.5 (≈ 26.7 µM)	50 (≈ 107 µM)		
C=C[C@@](C)(/C=C/c1ccc(OCCCCN2CCCC2)cc1)CCC=C(C)C [Compound 20]	1.56 (≈ 4.09 µM)	> 100		1.56 (≈ 4.09 µM)	1.56 (≈ 4.09 µM)		
C=C[C@@](C)(/C=C/c1ccc(OCCCCN2CCN(C)CC2)cc1)CCC=C(C)C [Compound 21]	1.56 (≈ 3.8 µM)	> 100		3.12 (≈ 7.61 µM)	3.12 (≈ 7.61 µM)		
C=C[C@@](C)(/C=C/c1ccc(OCCCCN(Cc2ccccn2)Cc2ccccn2)cc1)CCC=C(C)C [Compound 22]	3.12 (≈ 6.13 µM)	> 100		1.56 (≈ 3.06 µM)	1.56 (≈ 3.06 µM)		
C=C[C@@](C)(/C=C/c1ccc(OCCCCN2CCN(CCCN(C)C)CC2)cc1)CCC=C(C)C [Compound 23]	1.56 (≈ 3.24 µM)	3.12 (≈ 6.49 µM)		0.78 (≈ 1.62 µM)	3.12 (≈ 6.49 µM)	0.39 to 3.12 (≈ 0.81 to 6.49 µM)	1.56 to 3.12 (≈ 3.24 to 6.49 µM)
C=C[C@@](C)(/C=C/c1ccc(OCCCCN(C)CCCNC)cc1)CCC=C(C)C [Compound 24]	1.56 (≈ 3.78 µM)	1.56 (≈ 3.78 µM)		0.78 (≈ 1.89 µM)	1.56 (≈ 3.78 µM)	0.39 to 3.12 (≈ 0.945 to 7.57 µM)	1.56 to 3.12 (≈ 3.78 to 7.57 µM)
C=C[C@@](C)(/C=C/c1ccc(OCCCCNCCSC)cc1)CCC=C(C)C [Compound 25]	0.78 (≈ 1.94 µM)	50 (≈ 124 µM)		0.78 (≈ 1.94 µM)	1.56 (≈ 3.88 µM)	0.39 to 3.12 (≈ 0.971 to 7.78 µM)	
